Assays:
[1] = test system: Human immunodeficiency virus 1; assay: Antiviral activity against HIV1 3B coinfected with HTLV in human PBMC assessed as inhibition of viral p24 antigen production after 7 days by ELISA; format: functional, organism-based; conditions: Human immunodeficiency virus 1, 3B, 168 h
[2] = Selectivity index, ratio of CC50 for human PBMC to IC50 for HIV1 3B; format: functional
[3] = Cytotoxicity against human Hep3B cells assessed as growth inhibition after 48 hrs by MTT assay; format: functional, cell-based, Hep 3B2
[4] = molecular target: High affinity nerve growth factor receptor (Homo sapiens, UniProt P04629); assay: Inhibition of human recombinant N-terminal His6-tagged TRKA cytoplasmic domain (residues 440)
[5] = Antiprion activity against […] RML PrPSc infected in mouse N2A cells after 6 days by ELISA; format: cell-based; conditions: 144 h
[6] = Drug uptake in po dosed mouse brain measured after 3 days; format: ADME, organism-based; conditions: read-out: Drug uptake

Chain of High affinity nerve growth factor receptor (P04629 whole entry, the tested form may be a part): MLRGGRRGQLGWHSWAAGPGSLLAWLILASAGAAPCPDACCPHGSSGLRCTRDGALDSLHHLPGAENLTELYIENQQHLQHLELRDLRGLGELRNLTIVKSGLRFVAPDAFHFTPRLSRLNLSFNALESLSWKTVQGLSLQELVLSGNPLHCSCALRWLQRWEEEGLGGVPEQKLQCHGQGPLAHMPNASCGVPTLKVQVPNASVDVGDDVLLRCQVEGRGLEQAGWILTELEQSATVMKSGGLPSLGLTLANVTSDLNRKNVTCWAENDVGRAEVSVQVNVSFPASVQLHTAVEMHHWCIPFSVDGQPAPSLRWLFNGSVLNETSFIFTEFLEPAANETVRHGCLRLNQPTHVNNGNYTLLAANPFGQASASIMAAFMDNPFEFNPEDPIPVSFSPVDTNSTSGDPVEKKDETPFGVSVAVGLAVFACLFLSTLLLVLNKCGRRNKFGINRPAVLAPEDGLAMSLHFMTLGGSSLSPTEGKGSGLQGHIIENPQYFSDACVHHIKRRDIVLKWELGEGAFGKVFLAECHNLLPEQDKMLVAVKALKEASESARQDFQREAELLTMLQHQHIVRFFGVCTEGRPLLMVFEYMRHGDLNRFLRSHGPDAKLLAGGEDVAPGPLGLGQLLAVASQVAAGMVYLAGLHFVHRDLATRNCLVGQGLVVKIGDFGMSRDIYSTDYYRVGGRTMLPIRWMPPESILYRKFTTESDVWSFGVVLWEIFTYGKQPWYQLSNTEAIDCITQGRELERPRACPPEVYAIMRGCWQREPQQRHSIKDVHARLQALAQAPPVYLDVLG

SMILES	IC50 [1] [µM]	Ratio CC50/IC50 [2]	other results
S=C(NCc1ccco1)Nc1nccs1	< 0.001	>100000	
S=C(NCCOc1ccccc1)Nc1nccs1	< 0.001	>100000	
O=C(CCc1ccco1)Nc1nc(-c2ccccc2)cs1			IC50 [3]: 0.04 µM; IC50 [4]: 0.013 µM
Cc1ccc(Nc2nc(-c3cc(-c4ccccc4)no3)cs2)nc1			EC50 [5]: 0.94 µM; concentration at 72 h [6]: 25 µM
